Data: patent publication US20190203240A1, “METHODS FOR THE PRODUCTION OF RHAMNOSYLATED FLAVONOIDS” (Universitaet Hamburg, priority 2016, published 2019)
“And” between values parts separate entries of the source, which are not always exact repeats. Equal entries are not always repeated.

Experiments:
[1] = system: STAT3; assay: STAT3 activity in HeLa-STAT3-luc cells stimulated with IFN-γ (luciferase); assay type: cell-based; conditions: +IFNγ 25 U/ml
Experimental: HeLa-STAT3-luc cells were stably transfected with the plasmid 4×M67 pTATA TK-Luc. Cells (20×10^3 cells/ml) were seeded 96-well plate the day before the assay. Then the cells were treated with the test substances for […] and then stimulated with IFN-γ 25 IU/ml. After 6 h, the cells were washed twice with PBS and lysed in […] lysis buffer containing 25 mM Tris-phosphate (pH 7.8), 8 mM MgCl2, 1 mM DTT, 1% Triton X-100, and 7% glycerol during […] at RT in a horizontal shaker. Luciferase activity was measured using GloMax 96 microplate luminometer (Promega) following the instructions of the luciferase assay kit (Promega, Madison, Wis., USA). […] The experiments for each concentration of the test items were done in triplicate wells.

[2] = system: VEGF; assay: Stimulation of VEGF release in NHDF (ELISA); assay type: cell-based, human; conditions: 72 hours, 100 μM
Experimental: (§1) Tests were performed with normal human dermal fibroblast cultures at the 8th passage. Cells were grown in DMEM supplemented with glutamine at 2 mM, penicillin at 50 U/mL and streptomycin (50 μg/mL) and 10% of fetal calf serum (FCS) at 37° C. in a 5% CO2 atmosphere.
(§2) Fibroblasts were cultured for 24 hours before the cells were incubated with the test compounds for further 72 hours. After the incubation the culture supernatants were collected in order to measure the released quantities of procollagen I, VEGF, and fibronectin by means of ELISA. Reference test compounds were vitamin C (procollagen I), PMA (VEGF), and TGF-β (fibronectin).

[3] = system: fibronectin; assay: Stimulation of fibronectin synthesis in NHDF (ELISA); assay type: cell-based, human; conditions: 100 μM
Experimental: as §1, §2

[4] = system: NF-κB; assay: NF-κB activity in NIH3T3-KBF-Luc cells stimulated with TNFα (luciferase); assay type: cell-based; conditions: +30 ng/ml TNFα
Experimental: NIH3T3-KBF-Luc cells were stably transfected with the KBF-Luc plasmid (Sancho (2003) Mol Pharmacol 63:429-438), which contains three copies of NF-κB binding site (from major histocompatibility complex promoter), fused to a minimal simian virus 40 promoter driving the luciferase gene. Cells (1×10^4 for NIH3T3-KBF-Luc) were seeded the day before the assay on 96-well plate. Then the cells were treated with the test substances for 15 min and then stimulated with 30 ng/ml of TNFα. After 6 h, the cells were washed twice with PBS and lysed in 50 μl lysis buffer containing 25 mM Tris-phosphate (pH 7.8), 8 mM MgCl2, 1 mM DTT, 1% Triton X-100, and 7% glycerol during 15 min at RT in a horizontal shaker. Luciferase activity was measured using a GloMax 96 microplate luminometer (Promega) following the instructions of the luciferase assay kit (Promega, Madison, Wis., USA). […] The experiments for each concentration of the test items were done in triplicate wells.

[5] = system: matrix metallopeptidase 1 (MMP-1); assay: MMP-1 release in UVA-irradiated NHDF (ELISA); assay type: cell-based, human
Experimental: as §1
Human fibroblasts were cultured for 24 hours before the cells were pre-incubated with the test or reference compounds (dexamethasone) for another 24 hours. The medium was replaced by the irradiation medium (EBSS, CaCl2) 0.264 g/L, MgClSO4 0.2 g/L) containing the test compounds) and cells were irradiated with UVA (15 J/cm^2). The irradiation medium was replaced by culture medium including again the test compounds incubated for 48 hours. After incubation the quantity of matrix metallopeptidase 1 (MMP-1) in the culture supernatant was measured using an ELISA kit.

[6] = system: procollagen I; assay: Stimulation of procollagen I synthesis in NHDF (ELISA); assay type: cell-based, human; conditions: 72 hours, 100 μM
Experimental: as §1, §2

[7] = system: HaCaT cells; assay: Glucose uptake (2-NBDG) in HaCaT keratinocytes; assay type: cell-based; conditions: +2NBDG 50 μM, 24 h
Experimental: HaCaT cells (5×10^4) were seeded in 96-well black plates and incubated for 24 h. Then, medium was removed and the cells cultivated in OptiMEM, labeled with 50 μM 2-NBDG (2-[N-(7-nitrobenz-2-oxa-1,3-diazol-4-yl) amino]-2-deoxy-D-glucose and treated with the test substances or the positive control, Rosiglitazone, for 24 h. Medium was removed and the wells were carefully washed with PBS and incubated in PBS (100 μl/well). Finally the fluorescence was measured using the Incucyte FLR software, the data were analyzed by the total green object integrated intensity (GCU×μm2×Well) of the imaging system IncuCyte HD (Essen BioScience). The fluorescence of Rosiglitazone is taken as 100% of glucose uptake, and the glucose uptake was calculated as (% Glucose uptake)=100(T−B)/(R−B), where T (treated) is the fluorescence of test substance-treated cells, B (Basal) is the fluorescence of 2-NBDG cells and […] is the fluorescence of cells treated with Rosiglitazone.

[8] = system: PGE2; assay: Anti-inflammatory potential: secreted PGE2 in stimulated NHEK (ELISA); assay type: cell-based, human; conditions: PMA stimulation, 100 μM
Experimental: NHEK were pre-incubated for 24 h with the test compounds. The medium was replaced with the NHEK culture medium containing the inflammatory inducers (PMA or Poly I:C) and incubated for another 24 hours. Positive and negative controls ran in parallel. At the endpoint the culture supernatants were quantified of secreted IL-8, PGE2 and TNF-α, by means of ELISA.

[9] = NHDF irradiated 15 J/cm^2 UVA, 100 μM

## C[C@@H]1O[C@@H](Oc2cc(O)cc3c2C(=O)CC(c2ccc(O)cc2)O3)[C@H](O)[C@H](O)[C@H]1O (mixture of isomers) [NR1, Naringenin-5-O-α-L-rhamnoside]
[1]; 25 μM
  % Activation (STAT3; IFNγ = 100%): 58.47%
  RLU 1: 10925 RLU
  RLU 2: 8301 RLU
  RLU 3: 8752 RLU
  RLU MEAN: 9326 RLU
  RLU specific: 7319 RLU
[1]; 50 μM
  % Activation (STAT3; IFNγ = 100%): 69.97%
  RLU 1: 18272 RLU
  RLU 2: 6426 RLU
  RLU 3: 7599 RLU
  RLU MEAN: 10766 RLU
  RLU specific: 8758 RLU
[2]
  Mean VEGF: 92 pg/mL
  VEGF % Control: 128%
[2]; single values
  VEGF: 90 pg/mL and 94 pg/mL
[3]
  fibronectin synthesis increase: 20%
[3]; 72 h incubation
  Fibronectin % Control: 120%
  Fibronectin % Stimulation: 20%
  Fibronectin (ng/ml), single replicates: 6833 ng/mL and 7820 ng/mL
  Fibronectin Mean: 7326 ng/mL
[4]; 10 μM
  % Activation (NF-κB; TNFα = 100%): 114.0%
  RLU 1: 134540 RLU
  RLU 2: 126580 RLU
  RLU 3: 130240 RLU
  RLU MEAN: 130453 RLU
  RLU specific: 93190 RLU
[4]; 25 μM
  % Activation (NF-κB; TNFα = 100%): 136.5%
  RLU 1: 151080 RLU
  RLU 2: 151840 RLU
  RLU 3: 143870 RLU
  RLU MEAN: 148930 RLU
  RLU specific: 111667 RLU
[5]; [9]
  MMP-1 % Irradiated control: 338%
  MMP-1 % Protection: −372%
  MMP-1 (ng/ml), single replicates: 211.7 ng/mL and 268.8 ng/mL
  Mean MMP-1: 240.3 ng/mL
[5]; NHDF, UV-irradiated conditions
  upregulation of MMP-1 biosynthesis: ~4 fold
[6]
  Procollagen I % Control: 66%
  Procollagen I % Stimulation: −34%
  Procollagen I Mean: 1097 ng/mL
[6]; single values
  Procollagen I: 1334 ng/mL and 860 ng/mL
[7]; 25 μM
  % Glucose uptake (Rosiglitazone = 100%): 87.7%
  Mean (fluorescence): 768005
  Measure 1 (fluorescence): 493970
  Measure 2 (fluorescence): 1160754
  Measure 3 (fluorescence): 649291
  RFU specific: 761691 RFU
[7]; 50 μM
  % Glucose uptake (Rosiglitazone = 100%): 29.6%
  Mean (fluorescence): 263881
  Measure 1 (fluorescence): 278134
  Measure 2 (fluorescence): 256310
  Measure 3 (fluorescence): 257198
  RFU specific: 257567 RFU
[8]
  Cytokine [pg/mL] PGE2 Mean: 1271 pg/mL
  PGE2 % stim. control: 81%
[8]; single values
  Cytokine [pg/mL] PGE2: 851 pg/mL and 1691 pg/mL
